# Results as given in patent US20150005288A1, “SUBSTITUTED PHENYLIMIDAZOPYRAZOLES AND USE THEREOF” (Bayer Intellectual Property GmbH, priority 2012, published 2015).
# Target: T1, intracellular domain of human Tie2 (GST fusion protein) (Homo sapiens, UniProt Q02763)
# T1 construct: intracellular domain of human Tie2 (amino acids 776-1124); made in house; host or cells: Baculovirus-infected insect cells (Hi5)
# Test: Tie2 kinase assay (Tie2-TR-FRET)
# Type: biochemical
# Conditions: ATP concentration 1 mM, in some cases means of several independent determinations
# Protocol: The Tie2-inhibitory activity of the substances according to the invention was determined with the aid of one of the Tie2-TR-FRET assays described in the sections below at an ATP concentration of 1 mM (TR-FRET=Time-Resolved Fluorescence Resonance Energy Transfer):
# The enzyme used was a recombinant fusion protein of glutathione S-transferase (GST) and the intracellular domain of human Tie2 (amino acids 776-1124) which was expressed in Baculovirus-infected insect cells (Hi5) and was purified by affinity chromatography on glutathione-Sepharose. Alternatively, it is also possible to use commercially available GST-His6-Tie2 fusion protein (ProQinase GmbH, Freiburg im Breisgau, Germany). The substrate used for the kinase reaction was the biotinylated peptide biotin-Ahx-[…] (C-terminus in amide form) which is commercially available (for example from Biosyntan, Berlin, Germany).
# For the assay, 50 nl of a 100-fold concentrated solution of the respective test substance in DMSO were pipetted into a black low-volume 384-well microtitre plate (Greiner Bio-One, Frickenhausen, Germany) 2 μl of a solution of the Tie2 fusion protein in assay buffer [50 mM HEPES/HCl pH 7, 10 mM MgCl2, 2.5 mM MnCl2, 1 mM dithiothreitol, 0.01% (v/v) Nonidet P-40, 0.1% (w/v) bovine serum albumin (BSA), 1× Complete EDTA-free protease inhibitor mixture (Roche)] were added, and the mixture was incubated for 15 min to allow pre-binding of the substance to the enzyme prior to the kinase reaction. The kinase reaction was then started by adding 3 μl of a solution of adenosine triphosphate (ATP, 1.67 mM→final concentration in 5 μl assay volume=1 mM) and substrate (1.67 μM→final concentration in 5 μl assay volume=1 μM) in assay buffer, and the resulting mixture was incubated for a reaction time of 60 min at 22° C. The concentration of the Tie2 fusion protein was adapted to the respective activity of the enzyme and adjusted such that the assay was carried out in the linear range. Typical concentrations were in the range of 30 ng/ml.
# The reaction was stopped by addition of 5 μl of a solution of TR-FRET detection reagents [200 nM streptavidin-XL665 and 2 nM PT66-Eu chelate, a europium chelate-labelled anti-phosphotyrosine antibody (Perkin-Elmer); alternatively, it is also possible to use PT66-Tb cryptate (Cisbio Bioassays, Codolet, France)] in aqueous EDTA solution[90 mM EDTA, 0.28% (w/v) bovine serum albumin (BSA) in 50 mM HEPES pH 7.5]. The resulting mixture was incubated at 22° C. for 1 h to allow formation of the complex of the biotinylated phosphorylated substrate and the detection reagents. The amount of phosphorylated substrate was then determined by measuring the resonance energy transfer from PT66-Eu chelate to streptavidin-XL665. To this end, the fluorescence emissions at 620 nm and 665 nm after excitation at 350 nm were measured in a TR-FRET measuring instrument (for example Viewlux, Perkin-Elmer). The ratio of the emissions at 665 nm and at 620 nm was taken as a measure of the amount of phosphorylated substrate.
# Usually, the test substance in question was tested on the same microtitre plate at […] different concentrations in the range from 20 μM to 0.073 nM (for example at 20 μM, 5.7 μM, 1.6 μM, 0.47 μM, 0.13 μM, 38 nM, 11 nM, 3.1 nM, 0.89 nM, 0.25 nM and 0.073 nM) in duplicate for each concentration. The dilution series were prepared prior to the assay at the stage of the 100-fold concentrated solution by serial dilution (the exact concentrations may vary depending on the pipettors used in each case). IC50 values were calculated using a 4-parameter fit, with the aid of inhouse software.
# Table 1 below lists the IC50 values from this assay for individual working examples (in some cases as means of several independent individual determinations): […]
# T1 sequence (Q02763 776-1124): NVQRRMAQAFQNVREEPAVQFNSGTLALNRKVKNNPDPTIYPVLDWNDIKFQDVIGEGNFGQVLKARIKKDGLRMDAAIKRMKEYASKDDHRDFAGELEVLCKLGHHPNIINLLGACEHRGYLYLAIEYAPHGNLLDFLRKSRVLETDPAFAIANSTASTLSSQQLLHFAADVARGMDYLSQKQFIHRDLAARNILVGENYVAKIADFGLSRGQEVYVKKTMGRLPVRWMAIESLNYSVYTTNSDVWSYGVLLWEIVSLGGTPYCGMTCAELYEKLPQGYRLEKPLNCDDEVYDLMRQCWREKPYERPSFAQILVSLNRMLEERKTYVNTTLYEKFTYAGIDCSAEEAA
row,SMILES,IC50 [µM]
1,"Cc1cc(C)c(-n2ccn3nc(-c4cccnc4)cc23)cc1NC(=O)c1cccc(OCC(C)C)c1 [Example 133, N-{2,4-Dimethyl-5-[6-(pyridin-3-yl)-1H-imidazo[1,2-b]pyrazol-1-yl]phenyl}-3-isobutoxybenzamide]",0.053
2,"CCCOc1cccc(C(=O)Nc2ccc(C)c(-n3ccn4nc(-c5cccnc5)cc34)c2)c1 [Example 61, N-{4-Methyl-3-[6-(pyridin-3-yl)-1H-imidazo[1,2-b]pyrazol-1-yl]phenyl}-3-propoxybenzamide]",0.26
3,"Cc1ccc(NC(=O)c2cc(C(C)(C)C)ccn2)cc1-n1ccn2nc(-c3cccnc3)cc12 [Example 125, 4-tert-Butyl-N-{4-methyl-3-[6-(pyridin-3-yl)-1H-imidazo[1,2-b]pyrazol-1-yl]phenyl}pyridine-2-carboxamide]",0.28
4,"Cc1ccc(NC(=O)c2cc(C#N)cc(S(F)(F)(F)(F)F)c2)cc1-n1ccn2nc(-c3cncs3)cc12 [Example 177, 3-Cyano-N-{4-methyl-3-[6-(1,3-thiazol-5-yl)-1H-imidazo[1,2-b]pyrazol-1-yl]phenyl}-5-(pentafluoro-λ^6-sulphanyl)benzamide]",0.0018
5,"Cc1ccc(NC(=O)c2cccc(C(F)(F)F)c2)cc1-n1ccn2nc(-c3cccnc3)cc12 [Example 39, N-{4-Methyl-3-[6-(pyridin-3-yl)-1H-imidazo[1,2-b]pyrazol-1-yl]phenyl}-3-(trifluoromethyl)-benzamide]",0.32
6,"Cc1ccc(NC(=O)c2cc(C#N)cc(S(F)(F)(F)(F)F)c2)cc1-n1ccn2nc(-c3ccnnc3)cc12 [Example 168, 3-Cyano-N-{4-methyl-3-[6-(pyridazin-4-yl)-1H-imidazo[1,2-b]pyrazol-1-yl]phenyl}-5-(pentafluoro-λ^6-sulphanyl)benzamide]",0.726
7,"Cc1cc(C)c(-n2ccn3nc(-c4cccnc4)cc23)cc1NC(=O)c1cc(C#N)cc(C(C)(C)C)c1 [Example 114, 3-tert-Butyl-5-cyano-N-{2,4-dimethyl-5-[6-(pyridin-3-yl)-1H-imidazo[1,2-b]pyrazol-1-yl]phenyl}-benzamide]",0.0003
8,"COc1cccc(C(=O)Nc2cc(-n3ccn4nc(-c5cccnc5)cc34)c(C)cc2C)c1 [Example 131, N-{2,4-Dimethyl-5-[6-(pyridin-3-yl)-1H-imidazo[1,2-b]pyrazol-1-yl]phenyl}-3-methoxybenzamide]",0.252
9,"Cc1ccc(NC(=O)c2cccc(S(F)(F)(F)(F)F)c2)cc1-n1ccn2nc(-c3cccnc3)c(F)c12 [Example 158, N-{3-[7-Fluoro-6-(pyridin-3-yl)-1H-imidazo[1,2-b]pyrazol-1-yl]-4-methylphenyl}-3-(pentafluoro-λ^6-sulphanyl)benzamide]",0.058
10,"Cc1cc(C)c(-n2ccn3nc(-c4cccnc4)cc23)cc1NC(=O)c1cc(C(C)(C)F)cc(S(F)(F)(F)(F)F)c1 [Example 149, N-{2,4-Dimethyl-5-[6-(pyridin-3-yl)-1H-imidazo[1,2-b]pyrazol-1-yl]phenyl}-3-(2-fluoropropan-2-yl)-5-(pentafluoro-λ^6-sulphanyl)benzamide]",0.0023
11,"COC1CN(c2cc(C(=O)Nc3cc(-n4ccn5nc(-c6cccnc6)cc45)c(C)cc3C)cc(S(F)(F)(F)(F)F)c2)C1 [Example 146, N-{2,4-Dimethyl-5-[6-(pyridin-3-yl)-1H-imidazo[1,2-b]pyrazol-1-yl]phenyl}-3-(3-methoxyazetidin-1-yl)-5-(pentafluoro-λ^6-sulphanyl)benzamide]",0.0007
12,"N#Cc1cc(C(=O)Nc2ccc(C(F)(F)F)c(-n3ccn4nc(-c5cccnc5)cc34)c2)cc(S(F)(F)(F)(F)F)c1 [Example 95, 3-Cyano-5-(pentafluoro-λ^6-sulphanyl)-N-{3-[6-(pyridin-3-yl)-1H-imidazo[1,2-b]pyrazol-1-yl]-4-(trifluoromethyl)phenyl}benzamide]",0.35
13,"Cc1cc(C)c(-n2ccn3nc(-c4cccnn4)cc23)cc1NC(=O)c1cc(C#N)cc(S(F)(F)(F)(F)F)c1 [Example 171, 3-Cyano-N-{2,4-dimethyl-5-[6-(pyridazin-3-yl)-1H-imidazo[1,2-b]pyrazol-1-yl]phenyl}-5-(pentafluoro-λ^6-sulphanyl)benzamide]",0.0003
14,"Cc1cc(C)c(-n2ccn3nc(-c4cn[nH]c4)cc23)cc1NC(=O)c1cc(C#N)cc(S(F)(F)(F)(F)F)c1 [Example 86, 3-Cyano-N-{2,4-dimethyl-5-[6-(1H-pyrazol-4-yl)-1H-imidazo[1,2-b]pyrazol-1-yl]phenyl}-5-(pentafluoro-λ^6-sulphanyl)benzamide]",0.0011
15,"Cc1ccc(NC(=O)c2cc(Cl)nc(C(C)(C)C)c2)cc1-n1ccn2nc(-c3cccnc3)cc12 [Example 65, 2-tert-Butyl-6-chloro-N-{4-methyl-3-[6-(pyridin-3-yl)-1H-imidazo[1,2-b]pyrazol-1-yl]phenyl}isonicotinamide]",0.057
16,"COc1ccc(NC(=O)c2cc(C#N)cc(S(F)(F)(F)(F)F)c2)cc1-n1ccn2nc(-c3cccnc3)cc12 [Example 99, 3-Cyano-N-{4-methoxy-3-[6-(pyridin-3-yl)-1H-imidazo[1,2-b]pyrazol-1-yl]phenyl}-5-(pentafluoro-λ^6-sulphanyl)benzamide]",0.24
17,"Cc1ccc(NC(=O)c2cc(C(C)(C)O)cc(S(F)(F)(F)(F)F)c2)cc1-n1ccn2nc(-c3cncs3)cc12 [Example 178, 3-(2-Hydroxypropan-2-yl)-N-{4-methyl-3-[6-(1,3-thiazol-5-yl)-1H-imidazo[1,2-b]pyrazol-1-yl]-phenyl}-5-(pentafluoro-λ^6-sulphanyl)benzamide]",0.0008
18,"Cc1ccc(NC(=O)c2cc(OC3CNC3)cc(S(F)(F)(F)(F)F)c2)cc1-n1ccn2nc(-c3cccnc3)cc12 [Example 24, 3-(Azetidin-3-yloxy)-N-{4-methyl-3-[6-(pyridin-3-yl)-1H-imidazo[1,2-b]pyrazol-1-yl]phenyl}-5-(pentafluoro-λ^6-sulphanyl)benzamide]",0.0008
19,"Cc1ccc(NC(=O)c2cccc(N3CCCC3)c2)cc1-n1ccn2nc(-c3cccnc3)cc12 [Example 56, N-{4-Methyl-3-[6-(pyridin-3-yl)-1H-imidazo[1,2-b]pyrazol-1-yl]phenyl}-3-(pyrrolidin-1-yl)-benzamide]",0.052
20,"Cc1ccc(NC(=O)c2cc(OCCCN)cc(S(F)(F)(F)(F)F)c2)cc1-n1ccn2nc(-c3cccnc3)cc12 [Example 23, 3-(3-Aminopropoxy)-N-{4-methyl-3-[6-(pyridin-3-yl)-1H-imidazo[1,2-b]pyrazol-1-yl]phenyl}-5-(pentafluoro-λ^6-sulphanyl)benzamide]",0.0003
21,"Cc1cc(C)c(-n2ccn3nc(-c4cccnc4)cc23)cc1NC(=O)c1cccc(N2CCC(F)(F)CC2)c1 [Example 138, 3-(4,4-Difluoropiperidin-1-yl)-N-{2,4-dimethyl-5-[6-(pyridin-3-yl)-1H-imidazo[1,2-b]pyrazol-1-yl]phenyl}benzamide]",0.065
22,"Cc1ccc(NC(=O)c2cc(N3CCNCC3)cc(S(F)(F)(F)(F)F)c2)cc1-n1ccn2nc(-c3cn[nH]c3)cc12 [Example 1, N-{4-Methyl-3-[6-(1H-pyrazol-4-yl)-1H-imidazo[1,2-b]pyrazol-1-yl]phenyl}-3-(pentafluoro-λ^6-sulphanyl)-5-(piperazin-1-yl)benzamide]",0.0003
23,"Cc1c(Cl)cc(NC(=O)c2cccc(S(F)(F)(F)(F)F)c2)cc1-n1ccn2nc(-c3cccnc3)cc12 [Example 106, N-{3-Chloro-4-methyl-5-[6-(pyridin-3-yl)-1H-imidazo[1,2-b]pyrazol-1-yl]phenyl}-3-(pentafluoro-λ^6-sulphanyl)benzamide]",0.11
